≈ marks a conversion by molar mass, not a printed value. Calls of active or inactive are those of the source. No cut-off for these calls is given here.
Key:
[1] = target: Rhodesain (Trypanosoma brucei rhodesiense, UniProt Q95PM0); test: Inhibition of Trypanosoma brucei rhodesiense rhodesain
[2] = test system: Trypanosoma brucei brucei; test: Trypanocidal activity against Trypanosoma brucei brucei after 48 hrs; format: functional, organism-based
[3] = test system: J774; test: Cytotoxicity against J774.1 cell line after 48 hrs; format: functional, cell-based; details: Mus musculus, J774, 48 h
[4] = test system: J774; test: Selectivity index, IC50 for J774.1/IC50 for Trypanosoma brucei brucei; format: functional
[5] = target: Rhodesain (Trypanosoma brucei rhodesiense) (UniProt Q95PM0); test: Inhibition of Trypanosoma brucei rhodesiense rhodesain at 140 uM
Sequence of Rhodesain (Trypanosoma brucei rhodesiense) (Q95PM0 1-450): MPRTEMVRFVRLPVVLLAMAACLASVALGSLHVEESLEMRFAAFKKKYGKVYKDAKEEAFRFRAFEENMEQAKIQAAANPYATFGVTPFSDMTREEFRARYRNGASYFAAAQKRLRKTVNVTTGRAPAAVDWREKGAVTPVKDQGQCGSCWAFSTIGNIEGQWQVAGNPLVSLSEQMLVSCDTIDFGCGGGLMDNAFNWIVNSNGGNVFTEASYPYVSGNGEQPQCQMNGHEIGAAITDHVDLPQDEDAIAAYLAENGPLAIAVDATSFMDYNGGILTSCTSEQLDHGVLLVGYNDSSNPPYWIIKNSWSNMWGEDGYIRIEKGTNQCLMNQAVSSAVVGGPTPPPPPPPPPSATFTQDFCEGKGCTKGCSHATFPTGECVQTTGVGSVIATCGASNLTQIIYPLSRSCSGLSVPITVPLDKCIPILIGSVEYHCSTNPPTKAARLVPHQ

[6] = target: Rhodesain (Trypanosoma brucei rhodesiense) (UniProt Q95PM0); test: Inhibition of Trypanosoma brucei rhodesiense rhodesain at 200 uM

Sequence of Rhodesain (Q95PM0 whole entry): as the sequence (Q95PM0 1-450) above

| inhibition [5] | inhibition [6] | Structure (SMILES) | Ki [1] | IC50 [2] | IC50 [3] | Ratio IC50 [4] | MIC [2] |
| --- | --- | --- | --- | --- | --- | --- | --- |
| – | – | C[C@@H](NC(=O)[C@H](Cc1ccccc1)NC(=O)OC(C)(C)C)C(=O)N1[C@H](C(=O)O)[C@H]1C(=O)O | 0.8 µM | – | – | – | – |
| – | – | CC(C)C[C@H](NC(=O)OC(C)(C)C)C(=O)N1CCC[C@@H](C(=O)N2[C@H](C(=O)OCc3ccccc3)[C@H]2C(=O)OCc2ccccc2)C1 | 0.6 µM | 25.6 µM | > 100 µM | >3.9 | – |
| – | – | CCOC(=O)[C@H]1[C@H](C(=O)OCC)N1C(=O)[C@@H]1CCCN(C(=O)[C@H](CC(C)C)NC(=O)OC(C)(C)C)C1 | 1.9 µM | > 100 µM | > 100 µM | – | – |
| – | – | CC(C)C[C@H](NC(=O)OC(C)(C)C)C(=O)N1CCC[C@@H]1C(=O)N1[C@H](C(=O)OCc2ccccc2)[C@H]1C(=O)OCc1ccccc1 | 1.2 µM | 31.4 µM | > 100 µM | >3.2 | – |
| – | – | CCOC(=O)[C@H]1[C@H](C(=O)OCC)N1C(=O)CCCCCNC(=O)CCCC[C@@H]1SC[C@@H]2NC(=O)N[C@@H]21 | 0.6 µM | > 100 µM | > 100 µM | – | – |
| – | – | CC(C)C[C@@H](NC(=O)OC(C)(C)C)C(=O)N1CCC[C@H](C(=O)N2[C@H](C(=O)OCc3ccccc3)[C@H]2C(=O)OCc2ccccc2)C1 | 0.7 µM | 34 µM | > 100 µM | >2.9 | – |
| – | – | C[C@H](NC(=O)[C@H](Cc1ccccc1)NC(=O)OC(C)(C)C)C(=O)N1[C@H](C(=O)O)[C@H]1C(=O)O | 0.5 µM | – | – | – | – |
| – | – | CC(C)C[C@H](NC(=O)OC(C)(C)C)C(=O)N1CC[C@@H]1C(=O)N1[C@H](C(=O)OCc2ccccc2)[C@H]1C(=O)OCc1ccccc1 | 0.8 µM | 30.8 µM | 37.2 µM | 1.2 | – |
| – | – | CC(C)(C)OC(=O)NCC(=O)N1CCCC[C@H]1C(=O)N1[C@H](C(=O)OCc2ccccc2)[C@H]1C(=O)OCc1ccccc1 | 0.7 µM | 27.6 µM | – | – | – |
| – | – | CCOC(=O)[C@@H]1[C@@H](C(=O)OCC)N1C(=O)[C@@H]1CCCN(C(=O)[C@H](CC(C)C)NC(=O)OC(C)(C)C)C1 | 1 µM | > 100 µM | > 100 µM | – | – |
| – | – | CC(C)C[C@H](NC(=O)OC(C)(C)C)C(=O)N1CCC[C@H]1C(=O)N1[C@H](C(=O)OCc2ccccc2)[C@H]1C(=O)OCc1ccccc1 | 2.3 µM | 11.1 µM | > 125 µM | >11.3 | 125 µM (≈ 77.7 µg/mL) |
| – | – | CC(C)C[C@H](NC(=O)OC(C)(C)C)C(=O)N1CCC[C@H]1C(=O)N1[C@@H](C(=O)OCc2ccccc2)[C@@H]1C(=O)OCc1ccccc1 | 0.5 µM | 10.9 µM | > 125 µM | >11.5 | 125 µM (≈ 77.7 µg/mL) |
| – | – | CC(C)(C)OC(=O)NCC(=O)N1CCC[C@H](C(=O)N2[C@H](C(=O)OCc3ccccc3)[C@H]2C(=O)OCc2ccccc2)C1 | 1.1 µM | 36.4 µM | > 100 µM | >2.7 | – |
| inactive | – | CC(C)C[C@@H](NC(=O)OC(C)(C)C)C(=O)N1CCC[C@H](C(=O)N2[C@H](C(=O)O)[C@H]2C(=O)O)C1 | – | – | – | – | – |
| – | – | CC(C)(C)OC(=O)NCC(=O)N1CCC[C@H]1C(=O)N1[C@H](C(=O)OCc2ccccc2)[C@H]1C(=O)OCc1ccccc1 | 3.1 µM | > 100 µM | > 100 µM | – | – |
| inactive | – | CC(C)(C)OC(=O)NCC(=O)N1CCC[C@@H](C(=O)N2[C@H](C(=O)O)[C@H]2C(=O)O)C1 | – | – | – | – | – |
| inactive | – | CC(C)C[C@@H](NC(=O)OC(C)(C)C)C(=O)N1CCC[C@@H](C(=O)N2[C@H](C(=O)O)[C@H]2C(=O)O)C1 | – | – | – | – | – |
| – | – | CCOC(=O)[C@H]1[C@H](C(=O)OCC)N1C(=O)[C@H]1CCN1C(=O)[C@H](CC(C)C)NC(=O)OC(C)(C)C | 3.1 µM | 20.6 µM | > 100 µM | >4.8 | – |
| – | – | CCOC(=O)[C@H]1[C@H](C(=O)OCC)N1C(=O)[C@H]1CCCN(C(=O)[C@H](CC(C)C)NC(=O)OC(C)(C)C)C1 | 1.9 µM | > 100 µM | > 100 µM | – | – |
| – | – | CC(C)C[C@@H](NC(=O)OC(C)(C)C)C(=O)N1CCC[C@@H]1C(=O)N1[C@H](C(=O)OCc2ccccc2)[C@H]1C(=O)OCc1ccccc1 | 2.8 µM | 35.2 µM | > 100 µM | >2.8 | – |
| – | – | C[C@@H](NC(=O)[C@@H](Cc1ccccc1)NC(=O)OC(C)(C)C)C(=O)N1[C@H](C(=O)OCc2ccccc2)[C@H]1C(=O)OCc1ccccc1 | 3.9 µM | 25.8 µM | > 100 µM | >3.8 | – |
| inactive | – | CC(C)C[C@H](NC(=O)OC(C)(C)C)C(=O)N1CCC[C@@H](C(=O)N2[C@H](C(=O)O)[C@H]2C(=O)O)C1 | – | – | – | – | – |
| – | 30.7% | Cl.NCCCC(N)(C(=O)O)C(F)F.O (stereo not given) [EFLORNITHINE HYDROCHLORIDE] | – | – | > 1000 µM | >44 | > 1000 µM |
| – | – | C[C@H](NC(=O)[C@@H](Cc1ccccc1)NC(=O)OC(C)(C)C)C(=O)N1[C@H](C(=O)O)[C@H]1C(=O)O | 0.1 µM | – | – | – | – |

— ChEMBL document CHEMBL1147010, “Aziridine-2,3-dicarboxylate inhibitors targeting the major cysteine protease of Trypanosoma brucei as lead trypanocidal agents” (Bioorg Med Chem Lett, 2006)
